The values that follow are results of earlier work, collected in US20230211112A1, “Method for emergency relief of acute ischemic attacks” (priority 2020, published 2023).

The data set relates to rats. The settings on record: confined space.

Regarding `[Ar]` [argon], for the setting “average, vs air environment, same initial oxygen concentration”, the “oxygen consumption reduced compared to the control” value was 27%. The “maximum survival time increased” value (vs air environment control) is reported as 33%.

As to `[Xe]` [xenon], where the note is “vs air environment control”, the oxygen consumption decreased is 3.2 times and the “time of maximum animal survival increased” value was 3.5 times.
